Source: PubChem BioAssay (NCI)
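In this assay, cells in 96-well plates receive the compound at five concentrations for 48 hours. Endpoints are linearly interpolated between the surrounding concentrations. GI50 = concentration required for 50% inhibition of growth. TGI denotes the concentration required for complete inhibition of growth.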

Experiments:
Assay in all cases: NCI tumour cell line growth inhibition, 48 h
[1] = system: NCI-H460 lung
[2] = system: SN12C renal
[3] = system: HCT-15 colon
[4] = system: CCRF-CEM leukemia
[5] = system: MOLT-4 leukemia
[6] = system: UACC-62 melanoma
[7] = system: MDA-MB-435
[8] = system: HCC-2998 colon
[9] = system: IGROV1 ovarian
[10] = system: HT29 colon
[11] = system: MCF7 breast
[12] = system: PC-3 prostate
[13] = system: M14 melanoma
[14] = system: UO-31 renal
[15] = system: SW-620 colon
[16] = system: K-562 leukemia
[17] = system: HCT-116 colon
[18] = system: RPMI-8226 leukemia
[19] = system: EKVX NSCLC
[20] = system: SNB-75 CNS
[21] = system: KM12 colon

## OC(c1ccc(Cl)cc1)(c1ccc(Cl)cc1)C(O)(c1ccc(Cl)cc1)c1ccc(Cl)cc1
[1]
  GI50: 3.11 µM
  TGI: > 100 µM
[2]
  GI50: 3.06 µM
  TGI: > 100 µM
[3]
  GI50: 2.93 µM
  TGI: > 100 µM
[4]
  GI50: 3.41 µM
  TGI: > 100 µM
[5]
  GI50: 3.18 µM
  TGI: > 100 µM
[6]
  GI50: 2.41 µM
  TGI: > 100 µM
[7]
  GI50: 2.94 µM
  TGI: > 100 µM
[8]
  GI50: 2.56 µM
  TGI: > 100 µM
[9]
  GI50: 1.97 µM
  TGI: > 100 µM
[10]
  GI50: 1.72 µM
  TGI: > 100 µM
[11]
  GI50: 3.27 µM
  TGI: > 100 µM
[12]
  GI50: 3.25 µM
  TGI: > 100 µM
[13]
  GI50: 3.23 µM
  TGI: > 100 µM
[14]
  GI50: 2.89 µM
  TGI: > 100 µM
[15]
  GI50: 3.24 µM
  TGI: > 100 µM
[16]
  GI50: 3.56 µM
  TGI: > 100 µM
[17]
  GI50: 2.02 µM
  TGI: > 100 µM
[18]
  GI50: 3.27 µM
  TGI: > 100 µM
[19]
  GI50: 3.14 µM
  TGI: > 100 µM
[20]
  GI50: 4.36 µM
  TGI: > 100 µM
[21]
  GI50: 4.12 µM
  TGI: > 100 µM
